The values below come from PubChem BioAssay (NCI).

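Five concentrations, 48 hours, 96-well plates. TGI marks complete inhibition of growth.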 A value given as a limit tells only on which side of the number the result lay.

Some test systems named below: 786-0 renal; A549 NSCLC; BT-549 breast; CAKI-1 renal; DU-145 prostate; HCT-116 colon; HCT-15 colon; KM12 colon; LOX IMVI melanoma; M14 melanoma; MALME-3M melanoma; MDA-MB-231 breast; NCI/ADR-RES ovarian; OVCAR-3 ovarian; RPMI-8226 leukemia; SK-MEL-2 melanoma; TK-10 renal; EKVX NSCLC.
Test in all cases: NCI-60 cell line screen, 48 h

With `Cc1ccc(SCC(OCn2cnc3c(N)ncnc32)[C@H](C)F)cc1` (some centres not stated), the TGI in the assay with 786-0 renal, in the assay on A549 NSCLC, in the assay on BT-549 breast, in the assay with CAKI-1 renal, in the assay on DU-145 prostate and in the assay on HCT-116 colon was above 100 µM throughout. Besides, the TGI in the assay on HCT-15 colon, in the assay with KM12 colon, in the assay on LOX IMVI melanoma, in the assay with M14 melanoma, with MALME-3M melanoma and in the assay on MDA-MB-231 breast was above 100 µM each time. Moreover, the TGI in the assay with NCI/ADR-RES ovarian, in the assay on OVCAR-3 ovarian, in the assay on RPMI-8226 leukemia, with SK-MEL-2 melanoma and in the assay on TK-10 renal was above 100 µM in each case.

Consider `C1COC2SC3=C(SC(=C4SC5=C(SCCS5)S4)S3)SC2O1` (configuration not stated), for which the TGI in the assay with 786-0 renal, in the assay with A549 NSCLC, in the assay with BT-549 breast, in the assay with CAKI-1 renal, in the assay on DU-145 prostate and in the assay on EKVX NSCLC was above 100 µM throughout. For the same compound, the TGI in the assay on HCT-116 colon, in the assay on HCT-15 colon, with KM12 colon, in the assay with M14 melanoma, in the assay with MALME-3M melanoma and with MDA-MB-231 breast was above 100 µM throughout. Also, the TGI in the assay with NCI/ADR-RES ovarian, in the assay with OVCAR-3 ovarian, in the assay with SK-MEL-2 melanoma and with TK-10 renal was above 100 µM each time.

Regarding `CCOC(=O)/C(C#N)=C(/NS(=O)(=O)c1cc(C)c(Cl)cc1[S-])[n+]1ccc(N(C)C)cc1`, the TGI in the assay with 786-0 renal, in the assay with A549 NSCLC, with BT-549 breast, in the assay with CAKI-1 renal, in the assay on DU-145 prostate and in the assay on EKVX NSCLC was above 100 µM throughout. Moreover, the TGI in the assay with HCT-116 colon, in the assay on HCT-15 colon, with KM12 colon, with M14 melanoma, with MALME-3M melanoma and with MDA-MB-231 breast was above 100 µM each time. The TGI in the assay on NCI/ADR-RES ovarian, with OVCAR-3 ovarian, in the assay on RPMI-8226 leukemia, in the assay with SK-MEL-2 melanoma and with TK-10 renal was above 100 µM each time.

Regarding `NCCCNc1ccc2c(c1)[n+]([O-])c1ccccc1[n+]2[O-]`, the TGI in the assay with 786-0 renal is above 100 µM; in the assay on A549 NSCLC, above 100 µM; in the assay on BT-549 breast, 64 µM; with DU-145 prostate, 70.8 µM; with EKVX NSCLC, above 100 µM; in the assay on HCT-116 colon, 63.7 µM. For the same compound, the TGI is 66.3 µM in the assay with HCT-15 colon; 80.3 µM with KM12 colon; 94.3 µM in the assay with LOX IMVI melanoma; above 100 µM in the assay with M14 melanoma; 46.6 µM with MALME-3M melanoma; 57.6 µM with MDA-MB-231 breast. Besides, the TGI is above 100 µM with NCI/ADR-RES ovarian, 50.5 µM in the assay with OVCAR-3 ovarian, 54.4 µM with RPMI-8226 leukemia and above 100 µM in the assay on TK-10 renal.

As for `CC12CN(CC[N+](C)(C)C)CC1(C)C1CCC2O1` (configuration not stated), the TGI in the assay with 786-0 renal, with A549 NSCLC, in the assay with BT-549 breast, in the assay on CAKI-1 renal, in the assay on DU-145 prostate and with EKVX NSCLC was above 100 µM in each case. Moreover, the TGI in the assay on HCT-116 colon, in the assay with HCT-15 colon, in the assay with KM12 colon, in the assay with LOX IMVI melanoma, with M14 melanoma and in the assay on MALME-3M melanoma was above 100 µM each time. Moreover, the TGI with MDA-MB-231 breast, in the assay with NCI/ADR-RES ovarian, in the assay on OVCAR-3 ovarian, in the assay with RPMI-8226 leukemia, in the assay with SK-MEL-2 melanoma and with TK-10 renal was above 100 µM each time.

Consider `CS(=O)(=O)c1nc(N)nc2nc[nH]c12`, for which the TGI in the assay with 786-0 renal, in the assay on A549 NSCLC, in the assay on CAKI-1 renal, in the assay with EKVX NSCLC, in the assay on HCT-116 colon and in the assay on HCT-15 colon was above 100 µM each time. Further, the TGI in the assay with KM12 colon, in the assay on LOX IMVI melanoma, in the assay with M14 melanoma, in the assay with OVCAR-3 ovarian, in the assay on RPMI-8226 leukemia and in the assay with SK-MEL-2 melanoma was above 100 µM throughout. This compound also showed a TGI in the assay with TK-10 renal above 100 µM.

For `CCOC(=O)c1ccc2c(c1)nc1n2C(c2c(F)cccc2F)SC1` (configuration not stated), the TGI in the assay on 786-0 renal was 67.8 µM; with A549 NSCLC it was above 100 µM; in the assay with BT-549 breast it was above 100 µM; with CAKI-1 renal, above 100 µM; with DU-145 prostate, above 100 µM; with HCT-116 colon it was 34 µM. For the same compound, the TGI was above 100 µM with HCT-15 colon; 37.7 µM with KM12 colon; 58.6 µM in the assay on LOX IMVI melanoma; above 100 µM in the assay with M14 melanoma; above 100 µM with MDA-MB-231 breast; 44.9 µM in the assay on NCI/ADR-RES ovarian. Also, the TGI was 43.4 µM in the assay on OVCAR-3 ovarian, above 100 µM with RPMI-8226 leukemia, 38.4 µM in the assay on SK-MEL-2 melanoma and above 100 µM with TK-10 renal.

For `CN1C(=O)n2c(nc3ccccc32)C(N=[N+]=[N-])(N=[N+]=[N-])C1=O` (configuration not stated), the TGI in the assay on 786-0 renal, in the assay with A549 NSCLC, with CAKI-1 renal, in the assay on EKVX NSCLC, in the assay with HCT-116 colon and with HCT-15 colon was above 100 µM throughout. Further, the TGI in the assay with KM12 colon, in the assay on LOX IMVI melanoma, with M14 melanoma, in the assay on MALME-3M melanoma, in the assay with OVCAR-3 ovarian and with RPMI-8226 leukemia was above 100 µM each time. In addition, the TGI in the assay with SK-MEL-2 melanoma and in the assay on TK-10 renal was above 100 µM each time.

For `CC(C#N)c1cn(S(=O)(=O)c2ccccc2)c2ccccc12` (configuration not stated), the TGI in the assay with 786-0 renal, with A549 NSCLC, with CAKI-1 renal, in the assay with HCT-116 colon, in the assay with HCT-15 colon and in the assay on KM12 colon was above 100 µM in each case. In addition, the TGI with M14 melanoma, with MALME-3M melanoma, in the assay on OVCAR-3 ovarian, with RPMI-8226 leukemia, in the assay on SK-MEL-2 melanoma and in the assay on TK-10 renal was above 100 µM each time.

Regarding `CCSC(=Nc1ccccc1)SC`, the TGI in the assay with 786-0 renal, with A549 NSCLC, with CAKI-1 renal, in the assay with EKVX NSCLC, in the assay with HCT-116 colon and in the assay on HCT-15 colon was above 100 µM throughout. Also, the TGI in the assay on KM12 colon, in the assay with LOX IMVI melanoma, in the assay on M14 melanoma, in the assay with MALME-3M melanoma, in the assay with OVCAR-3 ovarian and with RPMI-8226 leukemia was above 100 µM each time. For the same compound, the TGI with SK-MEL-2 melanoma and in the assay with TK-10 renal was above 100 µM throughout.

As to `CCOC(=O)C1C(=O)CC(C)(O)C(C(=O)OCC)C1c1ccc(N(C)C)cc1` (configuration not stated), the TGI in the assay with 786-0 renal, with A549 NSCLC, in the assay with BT-549 breast, in the assay with CAKI-1 renal, in the assay on DU-145 prostate and with EKVX NSCLC was above 100 µM throughout. The TGI in the assay with HCT-116 colon, in the assay on HCT-15 colon, in the assay with KM12 colon, in the assay on LOX IMVI melanoma, with MALME-3M melanoma and in the assay with MDA-MB-231 breast was above 100 µM each time. For the same compound, the TGI in the assay on NCI/ADR-RES ovarian, in the assay with OVCAR-3 ovarian, in the assay with SK-MEL-2 melanoma and in the assay on TK-10 renal was above 100 µM throughout.

With `CC(=O)c1ccc(-c2oc(-c3ccccc3)cc2-c2ccc3c(c2)OCO3)s1`, the TGI in the assay on 786-0 renal is above 100 µM; with CAKI-1 renal, 5.07 µM; with DU-145 prostate, above 100 µM; in the assay with EKVX NSCLC, above 100 µM; in the assay on HCT-116 colon, above 100 µM; in the assay on M14 melanoma, above 100 µM. Also, the TGI in the assay with NCI/ADR-RES ovarian, in the assay on OVCAR-3 ovarian, in the assay with RPMI-8226 leukemia and in the assay with TK-10 renal was above 100 µM throughout.

Take `CCOC(=O)CSc1nc(-c2ccc(OC)cc2)c(C#N)c(=O)[nH]1`: the TGI in the assay on 786-0 renal, in the assay with A549 NSCLC, with BT-549 breast, in the assay on CAKI-1 renal, with DU-145 prostate and in the assay on EKVX NSCLC was above 100 µM each time. Also, the TGI in the assay on HCT-116 colon, in the assay on HCT-15 colon, with KM12 colon, in the assay on M14 melanoma, in the assay on MDA-MB-231 breast and in the assay on NCI/ADR-RES ovarian was above 100 µM in each case. In addition, the TGI with OVCAR-3 ovarian, in the assay on RPMI-8226 leukemia, with SK-MEL-2 melanoma and in the assay with TK-10 renal was above 100 µM in each case.

As to `COc1ccccc1C1C2=C(COC2=O)OC(C)(C)Oc2cc3c(cc21)OCO3` (configuration not stated), the TGI was above 68.8 µM in the assay with 786-0 renal; above 100 µM in the assay on A549 NSCLC; above 29.8 µM in the assay with CAKI-1 renal; above 100 µM in the assay on DU-145 prostate; 26.7 µM in the assay on EKVX NSCLC; above 36.1 µM with HCT-116 colon. The TGI is above 100 µM in the assay with HCT-15 colon; 11.4 µM in the assay on KM12 colon; above 44.2 µM with LOX IMVI melanoma; above 85.1 µM with M14 melanoma; above 100 µM in the assay with MALME-3M melanoma; above 32.6 µM in the assay on MDA-MB-231 breast. Also, the TGI is above 30.8 µM in the assay with NCI/ADR-RES ovarian; 13.3 µM in the assay with OVCAR-3 ovarian; above 60.7 µM with RPMI-8226 leukemia; above 73.7 µM in the assay on SK-MEL-2 melanoma; above 28.8 µM in the assay with TK-10 renal.
